Results: patent US8642656B2, “Calixarene-based peptide conformation mimetics, methods of use, and methods of making” (priority 2004, dated 2014)
“Also recorded” adds a separate entry of the source. Read-outs that look alike come from different tables or passages of the source.

Columns and labels:
Solubility (Table 1) = format: physicochemical; conditions: footnotes: 3 mM in 100% DMSO or ethanol → 0.03 mM in H2O
endothelial cell (EC) = experiment: EC Proliferation Assay, [3H]thymidine incorporation (Example 36, Table 1); format: cell-based; conditions: read-out: EC proliferation IC50 (conc)
Procedure: Human umbilical vein derived EC(HUVEC) were harvested from normal human umbilical cords by perfusion with 0.125% trypsin/EDTA as described in Groenewegen et al., J. Exp. Med. 164, 131-143 (1986). For determination of quiescent EC phenotype isolated ECs were immediately fixed in 1% paraformaldehyde. Human microvascular ECs (MVECs) were isolated. ECs were cultured in fibronectin coated tissue culture flasks in culture medium (RPMJ-1640 with 20% human serum (HS), supplemented with 2 mM glutamine and 100 U/ml penicillin and 0.1 mg/ml streptomycin).
EC proliferation was measured using a [^3H]thymidine incorporation assay. ECs were seeded at 5000 cells/well in flatbottomed tissue culture plates and grown for 3 days, in the absence or presence of regulators, in culture medium. During the last 6 hours of the assay, the culture was pulsed with 0.5μ Ci [methyl-^3H]thymidine/well.

E. coli J96 = experiment: Bactericidal assay on J96; format: cell-based; conditions: for IC50: read-out: Bacterial activity on J96 IC50 (conc)
Text: Pseudomonas aeruginosa type 1 is a clinical, smooth strain isolate stereotyped by using the scheme of Homma et al., Japan. J. Exp. Med. 46, 329-336 (1976) and maintained in the lab by monthly transfer on blood agar plates. E. coli J96, IA2, and H5 are smooth strain, uropathogenic clinical isolates kindly maintained and provided by J. R. Johnson and described in Johnson et al., J. Infect. Disease 173, 920-926 (1996) for J96 and IA2 and in Johnson et al., J. Infect. Disease 173, 746-749 (1996) for H5. J5 is an E. coli rough strain initially referenced by G. R. Siber and discussed in Warren et al., Infect. Immunity 55, 1668-1673 (1987) and is analogous to the smooth strain E. coli 0111:B4 used in the BioWhittaker LAL endotoxin detection and quantitation kit described below. Gram-positive MN8 and MNHO are two patient isolates of Staphylococcus aureus, which were kindly provided by P. M. Schlievert and described in Bohach et al., Rev. Infect. Diseases 11, 75-82 (1989) for MNHO and in Schlievert et al., J. Infect. Diseases 147, 236-242 (1983) for MN8. All cultures are maintained on nutrient agar plates.
Pyrogen-free solutions were used throughout the assay. Log phase bacteria were obtained by transferring an overnight culture or scraping crystals off-85° C glycerol stocks of overnight cultures. Bacteria were washed and resuspended in 0.9% sodium chloride with adjustment to an optical density at 650 nm which yields 3×10^8 CFU/ml. Bacteria were then diluted 1:10 in 0.08 M citrate phosphate buffer, pH 7.0 (prepared by mixing 0.08 M citric acid with 0.08 M dibasic sodium phosphate). Bacteria (0.15 ml) were incubated with the test compound in a final volume of 1.0 ml of buffer. The assay was done in 17×100 polypropylene tubes in a reciprocal water bath shaker at 37° C for 30 minutes. Following this 30 minute (min) incubation. 10-fold dilutions were made in 0.9% sodium chloride. Dilutions were done to 10^−4 and 20 μl of each dilution was streaked across an agar plate. Gram-positive organisms were plated on nutrient agar plates containing 2% agar and Gram-negative organisms were plated on MacConkey agar (2%). Plates were incubated overnight at 37° C and counted the next morning. The dilution containing 10-100 bacteria was counted and the number multiplied by 50 to adjust all counts to the number bacteria killed per milliliter. Compound concentrations were converted to logarithm base ten and graphed. Bactericidal activity was determined by dose response where LD50 values were determined by best fits of a sigmoidal curve to the dose response data.

LPS from K. pneumoniae = experiment: LPS neutralization assay (Limulus amoebocyte lysate, QCL-1000); format: biochemical, Klebsiella pneumoniae; conditions: read-out: IC50 values (μM) for LPS binding, Klebsiella
Text: (§1) The ability of compounds to neutralize endotoxin was detected in vitro by using the chromogenic QCL-1000 kit from BioWhittaker, Inc. (Walkersville, Md.), and as described in their protocol. This Limulus amoebocyte lysate (LAL) assay is quantitative for Gram negative bacterial endotoxin (lipopolysaccharide, LPS). In this assay compounds that are active inhibit the LPS-mediated activation of a proenzyme whose active form would release p-nitroaniline (pNA) from a colorless synthetic substrate producing a yellow color (pNA) whose absorption is monitored spectrophotometrically at 405-410 nm. The initial rate of enzyme activation is proportional to the concentration of endotoxin present.
(§2) Variants of LPS from six Gram negative bacteria were used: E. coli serotypes 0111:B4 (Combrex, Walkersville, Md.) and 055:B5 (Sigma, St. Louis, Mo.); Klebsiella pneumoniae (List Biologies, San Jose, Calif.); Pseudomonas aeruginosa (List Biologies, San Jose, Calif.); Salmonella typhimurium (List Biologies, San Jose, Calif.), and Serratia marcascens (List Biologies, San Jose, Calif.). The concentration of compound required to neutralize a given LPS and therefore to inhibit the Limulus amoebocyte lysate driven by 0.04 units of any given LPS was determined by dose response curves fit by using a standard sigmoidal function to determined the JC50 value for each lopomimetic compound. The 0.04 units corresponds to 0.01 ng LPS from E. coli serotype 055:B5, 0.01 ng LPS from E. coli serotype 0111:B4, 0.003 ng LPS from K. pneumoniae, 0.01 ng LPS from P. aeruginosa, 0.03 ng LPS from S. typhimurium, and 0.03 ng LPS from S. marcascens.

[1] = test system: LPS from E. coli serotype 055:B5; experiment: as above; format: biochemical
Text: as §1, §2

[2] = test system: LPS from E. coli serotype 0111:B4; experiment: as above; format: biochemical; conditions: read-out: IC50 values (μM) for LPS binding, E. coli 0111:B4
Text: as §1, §2

LPS from S. typhimurium = experiment: as above; format: biochemical, Salmonella typhimurium; conditions: read-out: IC50 values (μM) for LPS binding, Salmonella
Text: as §1, §2

LPS from S. marcascens = experiment: as above; format: biochemical, Serratia marcascens; conditions: read-out: IC50 values (μM) for LPS binding, Serratia
Text: as §1, §2

LPS from P. aeruginosa = experiment: as above; format: biochemical, Pseudomonas aeruginosa; conditions: read-out: IC50 values (μM) for LPS binding, P.a.
Text: as §1, §2

[3] = test system: LPS from six species of bacteria; experiment: LPS neutralization assay, overall statements; format: biochemical; conditions: library of 23 compounds
Text: as §1
as §2, with “The 0.04 units corresponds to 0.01 ng LPS from E. coli serotype 055:B5, 0.01 ng LPS from E. coli serotype 0111:B4, 0.003 ng LPS from K. pneumoniae, 0.01 ng LPS from P. aeruginosa, 0.03 ng LPS from S. typhimurium, and 0.03 ng LPS from S. marcascens.” left out

EC [4] = experiment: EC % total cell death (Table 1); format: cell-based, human
Fibro = experiment: Other cells, Fibro (Table 1); format: cell-based
Hemolysis (Table 1) = format: cell-based; conditions: at 10^−6 M
EC [5] = experiment: EC % apoptosis (Table 1); format: cell-based, human
[6] = Table 2, read-out: IC50 values (μM) for LPS binding, E. coli 055:B4
[7] = Table 3, errors estimated ±30%, read-out: IC50 values (μM) for LPS binding, E. coli 055:B5

Row | Compound | Solubility (solvent, in words) (Solubility (Table 1)) | IC50 (endothelial cell (EC)) | IC50 (E. coli J96) | IC50 (LPS from K. pneumoniae; Table 2) | IC50 (LPS from K. pneumoniae; Table 3, errors estimated ±30%) | IC50 [1, 6] | IC50 [1, 7] | IC50 ([2]; Table 2) | IC50 ([2]; Table 3, errors estimated ±30%) | IC50 (LPS from S. typhimurium; Table 2) | IC50 (LPS from S. typhimurium; Table 3, errors estimated ±30%) | IC50 (LPS from S. marcascens; Table 2) | IC50 (LPS from S. marcascens; Table 3, errors estimated ±30%) | IC50 (LPS from P. aeruginosa; Table 2) | IC50 (LPS from P. aeruginosa; Table 3, errors estimated ±30%) | also measured
1 | CC(C)(C)c1cc2c(O)c(c1)Cc1cc(C(C)(C)C)cc(c1OCCNC(=N)N)Cc1cc(C(C)(C)C)cc(c1O)Cc1cc(C(C)(C)C)cc(c1OCCN)C2.O=C(O)C(F)(F)F | DMSO/H2O | > 25000 nM | 2500 nM |  |  |  |  |  |  |  |  |  |  |  |  | 
2 | CC(C)(C)c1cc2c(O)c(c1)Cc1cc(C(C)(C)C)cc(c1OCCCCNC(=N)N)Cc1cc(C(C)(C)C)cc(c1OCCCCNC(=N)N)Cc1cc(C(C)(C)C)cc(c1OCCCCNC(=N)N)C2 | DMSO/H2O | > 25000 nM | 1300 nM |  |  |  |  |  |  |  |  |  |  |  |  | 
3 | CC(C)CCOc1c2cc(CCC(=O)NCCN(C)C)cc1Cc1cc(CCC(=O)NCCN(C)C)cc(c1OCCC(C)C)Cc1cc(CCC(=O)NCCN(C)C)cc(c1OCCC(C)C)Cc1cc(CCC(=O)NCCN(C)C)cc(c1OCCC(C)C)C2 | DMSO/H2O | > 25000 nM | 1200 nM |  |  |  |  |  |  |  |  |  |  |  |  | 
4 | CN(C)CCNC(=O)COc1c2cc(C(C)(C)C)cc1Cc1cc(C(C)(C)C)cc(c1OCC(=O)NCCN(C)C)Cc1cc(C(C)(C)C)cc(c1OCC(=O)NCCN(C)C)Cc1cc(C(C)(C)C)cc(c1OCC(=O)NCCN(C)C)C2 [Compound 3] |  |  |  | 0.08 µM | > 5 µM | 4.4 µM | > 5 µM | > 5 µM | > 5 µM | 4.1 µM | > 5 µM | > 5 µM | > 5 µM | > 5 µM | > 5 µM | bactericidal activity (in words) (E. coli J96; in the micromolar range (Table 1)): reasonably good bactericidal activity
5 | CC(C)(C)c1cc2c(OCCCCN)c(c1)Cc1cc(C(C)(C)C)cc(c1OCCCCNC(=N)N)Cc1cc(C(C)(C)C)cc(c1OCCCCNC(=N)N)Cc1cc(C(C)(C)C)cc(c1OCCCCNC(=N)N)C2.O=C(O)C(F)(F)F [Compound 43, 5,11,17,23-Tetra-tert-butyl-25,26,27-tris(4-guanidinobutyroxy)-28-(4-aminobutyroxy) calix[4]arene trifloroacetic acid salt] |  |  |  | 0.5 µM | 0.5 µM | 0.1 µM | 0.1 µM | 0.4 µM | 0.4 µM | 0.6 µM | 0.6 µM | 3.2 µM | 3.2 µM | 0.8 µM | 0.8 µM | neutralizing LPS, ranking in words [3]: best LPS neutralizing compounds; also recorded: most effective for neutralizing LPS
6 | CC(C)CCOc1c2cccc1Cc1cc(CCCOS(=O)(=O)O)cc(c1O)Cc1cccc(c1OCCC(C)C)Cc1cc(CCCOS(=O)(=O)O)cc(c1O)C2 [Compound 49] |  |  |  | 2.1 µM | 2.1 µM | 5 µM | 5 µM | 5 µM | 5 µM | > 5 µM | > 5 µM | 4.2 µM | 4.2 µM | > 5 µM | > 5 µM | 
7 | CN(C)CCNC(=O)COc1c2cc(C(C)(C)C)cc1Cc1cc(C(C)(C)C)cc(c1OCC(=O)NCCN(C)C)Cc1cc(C(C)(C)C)cc(c1OCC(=O)NCCN(C)C)Cc1cc(C(C)(C)C)cc(c1OCC(=O)NCCN(C)C)C2 [drawing 10] | DMSO/H2O | > 25000 nM | 1300 nM |  |  |  |  |  |  |  |  |  |  |  |  | EC % total cell death (EC [4]): No effect; Other cells 25 μM, Fibro (Fibro): 100%; Hemolysis (Hemolysis (Table 1)): 100% at 10^−6 M; EC % Apoptosis 25 μM (EC [5]): No effect
8 | CC(C)(C)c1cc2c(OCC(=O)NCCN)c(c1)Cc1cc(C(C)(C)C)cc(c1OCC(=O)NCCN)Cc1cc(C(C)(C)C)cc(c1OCC(=O)NCCN)Cc1cc(C(C)(C)C)cc(c1OCC(=O)NCCN)C2 [drawing 14] | DMSO/H2O | > 25000 nM | > 3800 nM |  |  |  |  |  |  |  |  |  |  |  |  | 
9 | polymyxin B [PmxB, reference compound] |  |  |  | 0.01 µM | 0.01 µM | 0.03 µM | 0.03 µM | 0.03 µM | 0.03 µM | 0.1 µM | 0.3 µM | > 5 µM | > 5 µM | 0.003 µM | 0.003 µM | 
